The results in this text go back to patent US10610509B2, “Combinations of prostaglandins and nitric oxide donors” (NICOX S.A., priority 2014, dated 2020).

Test [1] deals with ocular hypertensive New Zealand White (NZW) rabbits. Briefly: Intraocular pressure (IOP) lowering activity in ocular hypertensive NZW rabbits (hypertonic saline injection). The test is classed as in vivo. The settings on record: versus vehicle and versus basal IOP, mean±standard error, compound (12) 0.3%, travoprost 0.004% topical, hypertonic saline (5%) intravitreal. On the procedure: Intraocular Pressure (IOP) Lowering Activity in Ocular Hypertensive New Zealand White (NZW) Rabbits
The Intraocular pressure (IOP) lowering activity of the combination of compound (12) (0.3%) and travoprost (0.004%) was assessed in ocular hypertensive rabbits.
Adult male NZW rabbits weighting 1.8-2.0 Kg were used in the experiments.
NZW rabbits were injected with 0.1 ml of hypertonic saline (5%) into the vitreous humor of both eyes. IOP was measured using a Tono-Pen AVIA Vet® at different time points (30, 60, 120 and 240 min) following hypertonic saline injection as well as before topical drug application (basal).
Travoprost (0.004%) or vehicle (5% cremophor-EL; 0.3% DMSO; 0.2 mg/ml BAC in PBS pH 6.0) were topically administered 15 min before hypertonic saline injection.
Compound (12) (0.3%) or vehicle (5% cremophor-EL; 0.3% DMSO; 0.2 mg/ml BAC in PBS pH 6.0) were topically administered immediately after hypertonic saline injection. Eyes were randomly assigned to different treatment groups.
One drop of 0.4% oxybuprocaine hydrochloride (Novesine, Sandoz) was instilled in each eye immediately before each set of ocular pressure measurements.
The ocular hypotensive effects (at […] following topical administration) of travoprost, compound (12) and the combination of compound (12) and travoprost are reported in table 2.
The results reported in table 2 are expressed as IOP change (at 30, 60, 120 and 300 minutes following topical administration) versus vehicle and versus IOP at basal (mean±standard error).

For test [2], the system named is ocular normotensive New Zealand White (NZW) rabbits. Briefly: Intraocular pressure (IOP) lowering activity in ocular normotensive NZW rabbits. Type of test: in vivo. The conditions noted are these: versus vehicle and versus basal IOP, mean±standard error, compound (12) 0.1%, travoprost 0.004% eye drops. As for the experimental part:
Intraocular Pressure (IOP) Lowering Activity in Ocular Normotensive New Zealand White (NZW) Rabbits
The Intraocular pressure (IOP) lowering activity of the combination of compound (12) (0.1%) and travoprost (0.004%) was assessed in ocular normotensive rabbits.
Adults male NZW rabbits weighting 1.8-2.0 Kg were used in the experiments.
IOP was measured using a pneumatonometer 30 CLASSIC™ before topical application (basal) and at different time points (30, 60, 120, 180, 240 and 300 min) thereafter. Travoprost (0.004%) or vehicle (5% cremophor-EL; 0.3% DMSO; 0.2 mg/ml BAC in PBS pH 6.0) were topically administered 5 minutes prior to compound (12) (0.1%) or vehicle (same as above) as eye drops into the conjunctiva pocket. Eyes were randomly assigned to different treatment groups. One drop of 0.4% oxybuprocaine hydrochloride (Novesine, Sandoz) was instilled in each eye immediately before each set of ocular pressure measurements.
Results are reported in the table in which the ocular hypotensive activity of the combination, of compound (12) and of travoprost are expressed as IOP change (at 30, 60, 120 and 300 minutes following topical administration) versus vehicle and versus IOP at basal (mean±standard error).

[3] abbreviates: 30 minutes after topical administration.
Setting [4] is: 60 minutes after topical administration.
[5] abbreviates: 120 minutes after topical administration.
Where [6] appears, read: 180 minutes after topical administration.
The mark [7] stands for this setting: 300 minutes after topical administration.

For `CC(C)OC(=O)CCC/C=C\C[C@@H]1[C@@H](/C=C/[C@@H](O)COc2cccc(C(F)(F)F)c2)[C@H](O)C[C@@H]1O` [Travoprost, 5-heptenoic acid, 7-[(1R,2R,3R,5S)-3,5-dihydroxy-2-[(1E,3R)-3-hydroxy-4-[3-(trifluoromethyl)phenoxy]-1-buten-1-yl]cyclopentyl]-, 1-methylethyl ester, (5Z)-], the IOP change was −2.4 ± 0.5 mmHg in test [1] (30 minutes); −5.0 ± 0.8 mmHg in test [1] (60 minutes); −5.1 ± 0.7 mmHg in test [1] (120 minutes); −1.7 ± 0.4 mmHg in test [1] (240 minutes); −1.6 ± 1.6 mmHg in test [2] (setting [3]); −0.9 ± 1.0 mmHg in test [2] (setting [4]). In addition, the values for the IOP change in test [2] (setting [5]), in test [2] (setting [6]) and in test [2] (setting [7]) were −1.1 ± 1.2 mmHg, −0.8 ± 0.4 mmHg and −0.6 ± 0.1 mmHg, respectively.
`O=C(CCC[C@@H](CO[N+](=O)[O-])O[N+](=O)[O-])O[C@@H]1CO[C@H]2[C@@H]1OC[C@H]2O` [Compound (12), (S)-((3R,3aR,6R,6aR)-6-hydroxyhexahydrofuro[3,2-b]furan-3-yl) 5,6-bis(nitrooxy)hexanoate]: the IOP change is given as −2.4 ± 0.6 mmHg in test [1] (30 minutes); −7.7 ± 0.5 mmHg in test [1] (60 minutes); −6.4 ± 0.5 mmHg in test [1] (120 minutes); −1.8 ± 0.6 mmHg in test [1] (240 minutes); −1.4 ± 0.6 mmHg in test [2] (setting [3]); −2.1 ± 0.4 mmHg in test [2] (setting [4]). In addition, the IOP change in test [2] (setting [5]) is given as −0.3 ± 0.3 mmHg; in test [2] (setting [6]), 0.1 ± 0.5 mmHg; in test [2] (setting [7]), 1.1 ± 0.8 mmHg.
